For 17 compounds, AFI results are on record in ChEMBL document CHEMBL3044952, “Synthesis and insect antifeedant activity of 2-substituted 2,3-dihydrofuran-3-ols and butenolides (Part II)” (1999).

What all share (format): functional
One experiment concerns Pieris brassicae. As to the kind of experiment: Antifeedant activity against fifth-instar larval stage of Pieris brassicae fed on compound-treated cabbage leaf disks at 5 mM by two choice assay.
Another experiment has as its system Spodoptera frugiperda. As to the kind of experiment: Antifeedant activity against Spodoptera frugiperda (fall armyworm) larvae fed on artificial diet containing compound at 100 ppm by two choice assay.
For a further experiment, the system named is Spodoptera exempta. Nature of the experiment: Antifeedant activity against Spodoptera exempta larvae fed on artificial diet containing compound at 100 ppm by two choice assay.

The structures appear in SMILES notation.

Take `CC1(C)OC(O)CC1(O)CCc1ccccc1` (configuration not stated): in the experiment with Pieris brassicae, the AFI is reported as 5%.

Turning to `C[C@@H]1CC(O[Si](C)(C)C(C)(C)C)CC[C@@]1(C)CCC1=CC(=O)OC1` (some centres not stated), the AFI in the experiment on Spodoptera frugiperda came out at 12%; with Spodoptera exempta, 34%.

Take `CC(=O)OC[C@@]12[C@@H](OC(C)=O)C[C@@H](C)C(C)(C)[C@H]1CCC[C@]21CO1`: the AFI was determined as 15% in the experiment on Spodoptera frugiperda and 20% in the experiment on Spodoptera exempta.

In the case of `COC1CC(O)(CCc2ccccc2)C(C)(C)O1` (configuration not stated), in the experiment with Pieris brassicae, the AFI was found to be 23%.

Regarding `CC1(C)OCCC1(O)CCc1ccccc1` (configuration not stated), the AFI with Pieris brassicae is 28%.

Turning to `CC1(C)OC(=O)CC1(O)CCc1ccccc1` (configuration not stated), in the experiment on Pieris brassicae, the AFI was 36%.

Turning to `CC1(C)OC(=O)C=C1CCc1ccccc1`, the AFI in the experiment on Pieris brassicae came to 33%.

As to `CCCCCCC1=CC(=O)OC1(C)C`, the AFI in the experiment on Pieris brassicae worked out at 9%.

As for `CCCCCCC1(O)CC(=O)OC1(C)C` (configuration not stated), in the experiment on Pieris brassicae, the AFI came out at 11%.

In the case of `CC1(C)OC(=O)CC1(O)CCC1CCCCC1` (configuration not stated), the AFI in the experiment on Pieris brassicae stood at 15%.

For `O=C1CC(CCC2CCCCC2)CO1` (configuration not stated), the AFI in the experiment with Pieris brassicae is -9.2%.

As to `O=C1C=C(CCC2CCCCC2)CO1`, the AFI in the experiment with Pieris brassicae worked out at 35%.

On to `O=C1CC(O)(CCC2CCCCC2)CO1` (configuration not stated), for which the AFI in the experiment with Pieris brassicae is given as -4%.

On to `CC1(C)OC(=O)C=C1CCC1CCCCC1`, for which the AFI in the experiment with Pieris brassicae is 26%.

Turning to `CC(=O)OC[C@@]12[C@@H](OC(C)=O)C[C@@H](C)[C@](C)(C[C@H](O)c3ccoc3)[C@H]1CCC[C@]21CO1` [6,19-DIACETYLTEUMASSILIN], the figures for the AFI with Spodoptera frugiperda and in the experiment on Spodoptera exempta were 94% and 38%, respectively.

In the case of `CC(=O)OC[C@@]12[C@@H](OC(C)=O)C[C@@H](C)[C@](C)(CCC3=CC(=O)OC3)[C@H]1CCC[C@]21CO1` [AJUGARIN I], the AFI in the experiment on Spodoptera frugiperda is recorded as 47%; in the experiment with Spodoptera exempta it was 73%.

Turning to `CC(=O)OC[C@@]12[C@@H](OC(C)=O)C[C@@H](C)[C@](C)([C@@H]3C[C@H]4C=CO[C@H]4O3)[C@H]1CCC[C@]21CO1` [CLERODIN], the AFI with Spodoptera frugiperda stood at 78%; with Spodoptera exempta, 76%.
